{"source": "patent US5216013A", "about": "“Aralkyl-N-terminal cycloalkoxy-C terminal amino hydroxy β-amino acid derivatives” (G. D. Searle & Co., priority 1992, dated 1993)", "origin": "cited, not measured here", "key": {"[1]": {"system": "renin"}, "[2]": {"system": "hog renin", "conditions": "after the injection of hog renin into nephrectomized rats"}, "[3]": {"system": "pepsin"}, "[4]": {"system": "cathepsin D"}}, "note": "Square brackets hold non-standard residues; d marks the D form. Peptide text beside a SMILES is read from it. * marks the point of attachment. Sta = CC(C)C[C@H](N)[C@@H](O)CC(=O)O; Isovaleryl = CC(C)CC(=O)*", "data": [{"smiles": "CC(C)CC(=O)N[C@H](C(=O)N[C@H](C(=O)N[C@@H](CC(C)C)[C@@H](O)CC(=O)N[C@@H](C)C(=O)N[C@@H](CC(C)C)[C@@H](O)CC(=O)O)C(C)C)C(C)C", "note": "[pepstatin] (Isovaleryl-VV[Sta]A[Sta]-OH)", "values": [{"measurement": "inhibition of renin (in words)", "setting": "[1]", "value": "inhibitor"}, {"measurement": "blood pressure", "setting": "[2]", "value": "reduce blood pressure in vivo"}, {"measurement": "inhibition of pepsin (in words)", "setting": "[3]", "value": "inhibitor"}, {"measurement": "inhibition of cathepsin D (in words)", "setting": "[4]", "value": "inhibitor"}]}]}
